From patent EP4707280A1, “1,4-CINEOLE DERIVATIVE AND INTERMEDIATE THEREOF, HERBICIDE CONTAINING SAID DERIVATIVE AS ACTIVE INGREDIENT, METHOD FOR USING HERBICIDE, AND METHOD FOR PREPARING AGROCHEMICAL COMPOSITION” (HOKKO CHEMICAL INDUSTRY CO., LTD., priority 2023, dated 2024)

Columns and labels:
Format in all cases: in vivo
[1] = tested on: Echinochloa crus-galli var. formosensis; experiment: Test Example 6: herbicidal effect test by application during growth period of paddy rice (low dose); settings: Echinochloa crus-galli; 7.5 g per 10 ares; applied seven days after sowing, flooded pots; 14 days after application; read-out: weed inhibition rate
Outline: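 Paddy-soil pots, flooded ~3 cm after sowing weed seeds at 0-1 cm depth, greenhouse-grown. Seven days after sowing, diluted emulsifiable concentrate applied by dropper at 7.5 g active ingredient per 10 ares. Weed inhibition rate (%) scored 14 days after application, in duplicate.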

Scirpus juncoides [2] = experiment: Test Example 2: herbicidal effect test by application during growth period of paddy rice; settings: Schoenoplectiella juncoides; 120 g per 10 ares; applied seven days after sowing, flooded pots; 14 days after application; read-out: weed inhibition rate
Outline: (§1)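 Steps: puddle fertilized paddy soil; sow 30 seeds of each weed at 0–1 cm; flood to roughly 3 cm and keep in a glasshouse; at day 7 drop in diluted emulsifiable concentrate (120 g a.i. per 10 ares); score inhibition (%) 14 days later, two replicates.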

Monochoria vaginalis [3] = experiment: as above; settings: Pontederia vaginalis; 120 g per 10 ares; applied seven days after sowing, flooded pots; 14 days after application; read-out: weed inhibition rate
Outline: as §1

[4] = tested on: Echinochloa crus-galli var. formosensis; experiment: as above; settings: Echinochloa crus-galli; 120 g per 10 ares; applied seven days after sowing, flooded pots; 14 days after application; read-out: weed inhibition rate
Outline: as §1

Digitaria ciliaris [5] = experiment: Test Example 4: herbicidal effect test by stem and leaf treatment in upland field; settings: Digitaria ciliaris; 120 g per 10 ares; sprayed seven days after sowing, upland soil; 14 days after application; read-out: weed inhibition rate
Digitaria ciliaris [6] = experiment: Test Example 3: herbicidal effect test by soil application in upland field; settings: Digitaria ciliaris, 120 g per 10 ares, sprayed one day after sowing, 14 days after application, read-out: weed inhibition rate
Outline: (§2)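 Pre-emergence test: seeds mixed into top 1 cm of alluvial loam upland soil in pots; emulsifiable concentrate diluted in water sprayed on soil one day after sowing at 100 L/10 a, 120 g a.i./10 a. Weed inhibition rate (%) scored at 14 days, in duplicate.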

Echinochloa crus-galli [7] = experiment: as above; settings: Echinochloa crus-galli, 120 g per 10 ares, sprayed one day after sowing, 14 days after application, read-out: weed inhibition rate
Outline: as §2

Echinochloa crus-galli [8] = experiment: Test Example 4: herbicidal effect test by stem and leaf treatment in upland field; settings: Echinochloa crus-galli; 120 g per 10 ares; sprayed seven days after sowing, upland soil; 14 days after application; read-out: weed inhibition rate
Echinochloa crus-galli [9] = experiment: Test Example 8: herbicidal effect test by stem and leaf treatment in upland field (low dose); settings: Echinochloa crus-galli; 7.5 g per 10 ares; sprayed seven days after sowing, upland soil; 14 days after application; read-out: weed inhibition rate
Scirpus juncoides [10] = experiment: Test Example 5: herbicidal effect test by soil application in paddy rice (low dose); settings: Schoenoplectiella juncoides, 336 h, 7.5 g per 10 ares, applied immediately after sowing, flooded pots, 14 days after application, read-out: weed inhibition rate
Outline: (§3)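 Flooded-paddy soil application at low dose (7.5 g a.i. per 10 ares), given by dropper as diluted emulsifiable concentrate directly after sowing weeds 0–1 cm deep. Effect evaluated after 14 days in duplicate.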

Monochoria vaginalis [11] = experiment: as above; settings: Pontederia vaginalis, 336 h, 7.5 g per 10 ares, applied immediately after sowing, flooded pots, 14 days after application, read-out: weed inhibition rate
Outline: as §3

CC(C)=CCO[C@@H]1C[C@]2(C(C)C)O[C@@]1(C)C[C@@H]2Br [1-672, (1S,2R,4R,5S)-5-bromo-1-methyl-2-(3-methylbut-2-enoxy)-4-isopropyl-7-oxabicyclo[2.2.1]heptane]
≥ 80%: inhibition at 75 g/ha [1] | inhibition at 1200 g/ha (Scirpus juncoides [2]) | inhibition at 1200 g/ha (Monochoria vaginalis [3]) | inhibition at 1200 g/ha [4] | inhibition at 1200 g/ha (Digitaria ciliaris [5]) | inhibition at 1200 g/ha (Digitaria ciliaris [6]) | inhibition at 1200 g/ha (Echinochloa crus-galli [7]) | inhibition at 1200 g/ha (Echinochloa crus-galli [8]) | inhibition at 75 g/ha (Echinochloa crus-galli [9]) | inhibition at 75 g/ha (Scirpus juncoides [10]) | inhibition at 75 g/ha (Monochoria vaginalis [11])

CC(C)[C@]12C[C@@H](OCc3ccc(F)cc3)[C@](C)(C[C@@H]1Br)O2 [1-691, (1S,2R,4R,5S)-5-bromo-2-[(4-fluorophenyl)methoxy]-1-methyl-4-isopropyl-7-oxabicyclo[2.2.1]heptane]
≥ 80%: inhibition at 75 g/ha [1] | inhibition at 1200 g/ha (Scirpus juncoides [2]) | inhibition at 1200 g/ha (Monochoria vaginalis [3]) | inhibition at 1200 g/ha [4] | inhibition at 1200 g/ha (Digitaria ciliaris [5]) | inhibition at 1200 g/ha (Digitaria ciliaris [6]) | inhibition at 1200 g/ha (Echinochloa crus-galli [7]) | inhibition at 1200 g/ha (Echinochloa crus-galli [8]) | inhibition at 75 g/ha (Echinochloa crus-galli [9]) | inhibition at 75 g/ha (Scirpus juncoides [10]) | inhibition at 75 g/ha (Monochoria vaginalis [11])

CC(C)[C@]12C[C@@H](OCc3ccsc3)[C@](C)(C[C@@H]1Br)O2 [1-722, (1S,2R,4R,5S)-5-bromo-1-methyl-4-isopropyl-2-(thiophen-3-ylmethoxy)-7-oxabicyclo[2.2.1]heptane]
≥ 80%: inhibition at 75 g/ha [1] | inhibition at 1200 g/ha (Scirpus juncoides [2]) | inhibition at 1200 g/ha (Monochoria vaginalis [3]) | inhibition at 1200 g/ha [4] | inhibition at 1200 g/ha (Digitaria ciliaris [5]) | inhibition at 1200 g/ha (Digitaria ciliaris [6]) | inhibition at 1200 g/ha (Echinochloa crus-galli [7]) | inhibition at 1200 g/ha (Echinochloa crus-galli [8]) | inhibition at 75 g/ha (Echinochloa crus-galli [9]) | inhibition at 75 g/ha (Scirpus juncoides [10]) | inhibition at 75 g/ha (Monochoria vaginalis [11])

Cc1ccccc1CO[C@@H]1C[C@]2(C(C)C)O[C@@]1(C)C[C@@H]2I [1-741, (1S,2R,4R,5S)-5-iodo-1-methyl-2-[(2-methylphenyl)methoxy]-4-isopropyl-7-oxabicyclo[2.2.1]heptane]
≥ 80%: inhibition at 75 g/ha [1] | inhibition at 1200 g/ha (Scirpus juncoides [2]) | inhibition at 1200 g/ha (Monochoria vaginalis [3]) | inhibition at 1200 g/ha [4] | inhibition at 1200 g/ha (Digitaria ciliaris [5]) | inhibition at 1200 g/ha (Digitaria ciliaris [6]) | inhibition at 1200 g/ha (Echinochloa crus-galli [7]) | inhibition at 1200 g/ha (Echinochloa crus-galli [8]) | inhibition at 75 g/ha (Echinochloa crus-galli [9]) | inhibition at 75 g/ha (Scirpus juncoides [10]) | inhibition at 75 g/ha (Monochoria vaginalis [11])

C=CCO[C@@H]1C[C@]2(C)O[C@@]1(C(C)C)C[C@H]2OCc1ccccc1F [1-930, (1S,2R,4R,5R)-2-[(2-fluorophenyl)methoxy]-1-methyl-4-isopropyl-5-prop-2-enoxy-7-oxabicyclo[2.2.1]heptane]
≥ 80%: inhibition at 75 g/ha [1] | inhibition at 1200 g/ha (Scirpus juncoides [2]) | inhibition at 1200 g/ha (Monochoria vaginalis [3]) | inhibition at 1200 g/ha [4] | inhibition at 1200 g/ha (Digitaria ciliaris [5]) | inhibition at 1200 g/ha (Digitaria ciliaris [6]) | inhibition at 1200 g/ha (Echinochloa crus-galli [7]) | inhibition at 1200 g/ha (Echinochloa crus-galli [8]) | inhibition at 75 g/ha (Echinochloa crus-galli [9]) | inhibition at 75 g/ha (Scirpus juncoides [10]) | inhibition at 75 g/ha (Monochoria vaginalis [11])

C#CCO[C@@H]1C[C@]2(C)O[C@@]1(C(C)C)C[C@H]2OCc1ccccc1F [1-931, (1S,2R,4R,5R)-2-[(2-fluorophenyl)methoxy]-1-methyl-4-isopropyl-5-prop-2-ynoxy-7-oxabicyclo[2.2.1]heptane]
≥ 80%: inhibition at 75 g/ha [1] | inhibition at 1200 g/ha (Scirpus juncoides [2]) | inhibition at 1200 g/ha (Monochoria vaginalis [3]) | inhibition at 1200 g/ha [4] | inhibition at 1200 g/ha (Digitaria ciliaris [5]) | inhibition at 1200 g/ha (Digitaria ciliaris [6]) | inhibition at 1200 g/ha (Echinochloa crus-galli [7]) | inhibition at 1200 g/ha (Echinochloa crus-galli [8]) | inhibition at 75 g/ha (Echinochloa crus-galli [9]) | inhibition at 75 g/ha (Scirpus juncoides [10]) | inhibition at 75 g/ha (Monochoria vaginalis [11])
